Assay results published in patent US6274636A (priority 1999, dated 2001).

What was measured:
[1] = tested on: muscarinic cholinergic receptor; test: pharmacological studies, muscarinic cholinergic receptor activity
rats = test: in vivo animal observation, overdose in rats; settings: rats exposed to an overdose
clinical subjects = test: clinical observation, pupil response; type: in vivo, human
[2] = tested on: muscarinic receptor subtype; test: in vivo animal and clinical observations, muscarinic receptor subtype profile
[3] = human clinical trials, safety profile; type: in vivo
[4] = detection of radiolabelled compound in saliva; type: in vivo
[5] = known; cited from earlier work
5-HT1C receptor = test: activity at the 5-HT1C receptor; settings: anhydrous Form II

Row | SMILES | muscarinic cholinergic receptor activity [1] | salivation (rats) | pupilary response (clinical subjects) | muscarinic receptor subtype profile [2] | safety profile [3] | detection in the saliva [4] | induction of extrapyramidal symptoms [5] | activity at the 5-HT1C receptor (5-HT1C receptor)
1 | Cc1cc2c(s1)Nc1ccccc1N=C2N1CCN(C)CC1 [2-methyl-4-(4-methyl-1-piperazinyl)-10H-thieno[2,3-b][1,5]benzodiazepine] | has muscarinic cholinergic receptor activity | significant salivation | pupilary constriction rather than the expected pupilary dilation | complex muscarinic receptor subtype profile | favorable safety profile | can be detected in the saliva | less likely to induce extrapyramidal symptoms | 
2 | Cc1cc2c(s1)Nc1ccccc1N=C2N1CCN(C)CC1 [anhydrous Form II, 2-methyl-4-(4-methyl-1-piperazinyl)-10H-thieno[2,3-b][1,5]benzodiazepine] |  |  |  |  |  |  |  | active
